Test results taken from patent US10881698B2, “Diagnosis and treatment for respiratory tract diseases” (THE TRUSTEES OF THE UNIVERSITY OF PENNSYLVANIA, priority 2012, dated 2021).
Where a chain is given by its changes, count along the chain named. “And” between values parts separate entries of the source, which are not always exact repeats. Identical values can stand only once. Like-named read-outs stand apart in the source and are kept apart here.

What was measured:
T2R38 [1] = test: DAF-FM imaging of NO production in human sinonasal ALI cultures; assay type: cell-based; conditions: for DAF-FM fluorescence increase: 5 min, PAV/AVI
T2R38 [2] = molecular target: T1, T2R38 (Homo sapiens, UniProt P59533, A49P/I296V); test: Fluo-4 Ca2+ imaging in primary human sinonasal ALI cultures; assay type: cell-based; conditions: for Average peak Fluo-4 F/Fo after 5 min stimulation with C6HSL: 200 μM C6HSL
T1 construct: T2R38 is expressed in human upper airway epithelium; endogenous in cells; host or cells: primary human sinonasal epithelial cells, air-liquid interface cultures from surgical patients
T1 sequence (P59533 1-333 A49P/I296V): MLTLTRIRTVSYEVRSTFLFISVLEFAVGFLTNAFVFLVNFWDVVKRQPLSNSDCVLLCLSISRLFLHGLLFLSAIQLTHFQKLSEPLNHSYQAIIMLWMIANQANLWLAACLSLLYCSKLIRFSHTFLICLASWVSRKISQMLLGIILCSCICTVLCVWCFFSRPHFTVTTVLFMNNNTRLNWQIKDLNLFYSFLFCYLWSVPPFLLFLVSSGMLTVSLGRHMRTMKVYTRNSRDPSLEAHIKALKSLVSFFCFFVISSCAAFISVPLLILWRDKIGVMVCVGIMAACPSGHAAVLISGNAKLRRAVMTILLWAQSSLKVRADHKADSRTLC

T2R38 [3] = test: as above; assay type: cell-based
T2R38 [4] = molecular target: T2, T2R38 (Homo sapiens, UniProt P59533, A262V); test: as above; assay type: cell-based; conditions: AVI/AVI
T2 construct: T2R38 is expressed in human upper airway epithelium; endogenous in cells; host or cells: primary human sinonasal epithelial cells, air-liquid interface cultures from surgical patients
T2 sequence (P59533 1-333 A262V): T1 sequence (P59533 1-333 A49P/I296V) with P49A, A262V, V296I

PAV-TAS2R38 = molecular target: T3, PAV-TAS2R38 (Homo sapiens, UniProt P59533, A49P/I296V); test: Fluo-4 calcium mobilization in HEK293 cells expressing hTAS2R38 (PAV) and Gα16gustducin44; assay type: cell-based; conditions: PAV variant
T3 construct: first 45 amino acids of rat SSTR-3 (N); host or cells: HEK293 (peakRapid), transient transfection, pcDNA3.1(+)
T3 sequence (P59533 1-333 A49P/I296V): T1 sequence (P59533 1-333 A49P/I296V)

T2R38 [5] = molecular target: T1, T2R38; test: DAF-FM imaging of NO production in human sinonasal ALI cultures; assay type: cell-based; conditions: for DAF-FM fluorescence increase: 5 min, PAV/PAV; for Effect on C4HSL-induced NO production in taster cultures: C4HSL 200 μM, U73122 5 μM, 20 min pre-incubation
T2R38 [6] = molecular target: T2, T2R38; test: as above; assay type: cell-based; conditions: for DAF-FM fluorescence increase: 5 min, AVI/AVI
sinonasal ALI cultures [7] = test: Mucociliary transport velocity of fluorescent microspheres on sinonasal ALI cultures; assay type: cell-based, human; conditions: for Concentration required to stimulate a significant increase in mucociliary transport: PAV/PAV cultures
[8] = test system: acutely dissociated sinonasal ciliated epithelial cells; test: Ca2+ and DAF-FM responses in acutely dissociated sinonasal ciliated cells; assay type: cell-based, human
sinonasal ALI cultures [9] = assay type: cell-based, human
AVI-TAS2R38 = molecular target: T4, AVI-TAS2R38 (Homo sapiens, UniProt P59533, A262V); test: Fluo-4 calcium mobilization in HEK293 cells expressing hTAS2R38 (AVI) and Gα16gustducin44; assay type: cell-based; conditions: AVI variant
T4 construct: first 45 amino acids of rat SSTR-3 (N); host or cells: HEK293 (peakRapid), transient transfection, pcDNA3.1(+)
T4 sequence (P59533 1-333 A262V): T1 sequence (P59533 1-333 A49P/I296V) with P49A, A262V, V296I

beta-defensin 2 = test: Beta-defensin 2 secretion by sinonasal cultures; assay type: cell-based, human; conditions: denatonium- or absinthin-stimulated cultures
Pseudomonas aeruginosa [10] = test: Kill assay with ASL from stimulated sinonasal ALI cultures (CFU plating); assay type: cell-based
nasal epithelial cells = test: Fluo-4 calcium signaling with denatonium in nasal epithelial cells (sinonasal ALI cultures); assay type: cell-based, human; conditions: for Effect on denatonium induced calcium signaling: 2 mM sucrose or 1 mM sucralose
Pseudomonas aeruginosa [11] = test system: Pseudomonas aeruginosa

Molecule: CC(=O)NC(C(=O)O)C(C)(C)SN=O (racemic) [SNAP, S-Nitroso-N-Acetyl-D,L-Penicillamine]
- DAF-FM responses between the genotypes (control stimuli) (T2R38 [1]; SNAP 100 μM, ionomycin): did not yield differential DAF-FM responses between the genotypes

Molecule: CCCC(=O)N[C@H]1CCOC1=O [C4HSL, N-butyryl-L-homoserine lactone]
- Fluo-4 fluorescence after 5 min C4HSL (T2R38 [2]; 200 μM C4HSL, PAV/PAV): 1.29±0.03
- Fluo-4 fluorescence after 5 min C4HSL (T2R38 [3]; 200 μM C4HSL, PAV/AVI): 1.14±0.04
- Fluo-4 fluorescence after 5 min C4HSL (T2R38 [4]; 200 μM C4HSL): 1.10±0.04
- Peak Fluo-4 fluorescence (ΔF/F) (PAV-TAS2R38; 200 μM): 61±2%
- DAF-FM fluorescence increase (T2R38 [5]; 10 μM): 132±14
- DAF-FM fluorescence increase (T2R38 [5]; 100 μM): 230±30
- DAF-FM fluorescence increase (T2R38 [1]; 10 μM): 68±6
- DAF-FM fluorescence increase (T2R38 [1]; 100 μM): 130±17
- DAF-FM fluorescence increase (T2R38 [6]; 10 μM): 50±2
- DAF-FM fluorescence increase (T2R38 [6]; 100 μM): 69±8
- Increase in velocity (sinonasal ALI cultures [7]; 0.1 μM, PAV/PAV): 1.07±0.02
- Increase in velocity (sinonasal ALI cultures [7]; 1 μM, PAV/PAV): 1.12±0.03
- Increase in velocity (sinonasal ALI cultures [7]; 10 μM, PAV/PAV): 1.21±0.04
- Increase in velocity (sinonasal ALI cultures [7]; 100 μM, AVI/AVI): 1.12±0.03
- Increase in velocity (sinonasal ALI cultures [7]; 100 μM, PAV/PAV): 1.47±0.07
- Concentration required to stimulate a significant increase in mucociliary transport (sinonasal ALI cultures [7]): 10 µM
- Ca2+ responses in acutely dissociated sinonasal ciliated cells [8]: occurred
- Peak CBF with C4HSL (sinonasal ALI cultures [9]): 1.17±0.02 and 1.02±0.02
- Peak Fluo-4 fluorescence (ΔF/F) (AVI-TAS2R38; 200 μM): 0.3±0.4%

Molecule: CCCc1cc(=O)[nH]c(=S)[nH]1 [PROP, 6-n-propylthiouracil]
- Intracellular DAF-FM fluorescence (NO production) (T2R38 [5]; apical application, PAV/PAV (taster) cells): stimulated an increase in intracellular DAF-FM fluorescence

Molecule: COc1ccc2c(c1)CC[C@@H]1[C@@H]2CC[C@]2(C)[C@@H](NCCCCCCN3C(=O)CCC3=O)CC[C@@H]12 [U73343]
- Effect on C4HSL-induced NO production in taster cultures (T2R38 [5]): had no effect on NO production
- Effect on beta-defensin secretion (beta-defensin 2): had no effect

Molecule: COc1ccc(OC(C)C(=O)O)cc1 (stereo not drawn) [lactisole]
- Effect on glucose-mediated inhibition of bacterial kill (Pseudomonas aeruginosa [10]; lactisole 5 mM): reduced or reversed the glucose-mediated inhibition of bacterial kill
- Effect on sucrose/sucralose inhibition of denatonium calcium signaling (nasal epithelial cells; sweet receptor antagonist): substantially eliminates the inhibition

Molecule: CC1(C)N([O])C(c2ccc(C(=O)O)cc2)=[N+]([O-])C1(C)C [cPTIO]
- % green (viable) PAO1 (Pseudomonas aeruginosa [11]): 93±2%

Molecule: colistin sulfate
- % green (viable) PAO1 (Pseudomonas aeruginosa [11]): 4±2%

Molecule: COC(=O)[C@H](N)CCCN=C(N)N[N+](=O)[O-] [D-NAME]
- Effect on HSL-stimulated CBF increase (sinonasal ALI cultures [9]): not

Molecule: Nc1ncnc2c1ncn2[C@@H]1O[C@H](COP(=O)(O)OP(=O)(O)OP(=O)(O)O)[C@@H](O)[C@H]1O [ATP]
- Peak Fluo-4 F/Fo during 10 μM ATP stimulation (T2R38 [2]; PAV/PAV): 2.96±0.08
- Peak Fluo-4 F/Fo during 10 μM ATP stimulation (T2R38 [2]; PAV/PAV+U73122): 2.82±0.1
- Peak F/Fo during stimulation with 1 μM ATP (T2R38 [3]; L-NAME (50 μM)): 2.0±0.26
- Peak F/Fo during stimulation with 1 μM ATP (T2R38 [3]; control (no L-NAME)): 1.9±0.21
- ATP-induced Ca2+ responses versus TAS2R38 genotype (T2R38 [3]; ATP 1 μM, PAV/PAV, PAV/AVI, AVI/AVI cultures): did not correlate with TAS2R38 genotype
- Peak Fluo-4 F/Fo during 10 μM ATP stimulation (T2R38 [4]; 10 μM ATP): 2.90±0.09
- Bactericidal response on stimulation of cells (Pseudomonas aeruginosa [10]; ATP stimulation): no bactericidal response was observed
- Peak CBF after ATP stimulation between genotypes (sinonasal ALI cultures [9]): not significantly different between cultures of different genotypes

Molecule: C[C@H](CCC(=O)O)C[C@H](C)C[C@H](C)C(=O)/C=C(\O)[C@H](C)C[C@H](C)C/C=C/[C@@H](C)[C@@H](O)[C@@H](C)[C@@H](O)C[C@@H]1CC[C@@](C)([C@H]2CC[C@@](C)([C@@H](C)O)O2)O1 [ionomycin]
- DAF-FM responses between the genotypes (control stimuli) (T2R38 [1]): did not yield differential DAF-FM responses between the genotypes

Molecule: OCc1ccccc1O[C@@H]1O[C@H](CO)[C@@H](O)[C@H](O)[C@H]1O [salicin]
- Peak Fluo-4 fluorescence (ΔF/F) (PAV-TAS2R38; 10 mM): 1.4±0.3%
- Peak Fluo-4 fluorescence (ΔF/F) (AVI-TAS2R38; 10 mM): 3±1%

Molecule: CCCCCCCCCC(=O)CC(=O)N[C@H]1CCOC1=O [C12HSL, N-3-oxo-dodecanoyl-L-homoserine lactone]
- Fluo-4 fluorescence after 10 min C12HSL stimulation (T2R38 [2]; 100 μM C12HSL, PAV/PAV): 1.52±0.08
- Fluo-4 fluorescence after 10 min C12HSL stimulation (T2R38 [3]; 100 μM C12HSL, PAV/AVI): 1.28±0.04
- Fluo-4 fluorescence after 10 min C12HSL stimulation (T2R38 [4]; 100 μM C12HSL): 1.14±0.01
- Peak Fluo-4 fluorescence (ΔF/F) (PAV-TAS2R38; 100 μM): 73±5%
- DAF-FM fluorescence increase (T2R38 [5]; 10 μM): 235±20
- DAF-FM fluorescence increase (T2R38 [5]; 100 μM): 351±65
- DAF-FM fluorescence increase (T2R38 [1]; 10 μM): 77±13
- DAF-FM fluorescence increase (T2R38 [1]; 100 μM): 109±25
- DAF-FM fluorescence increase (T2R38 [6]; 10 μM): 44±9
- DAF-FM fluorescence increase (T2R38 [6]; 100 μM): 64±16
- Increase in velocity (sinonasal ALI cultures [7]; 0.1 μM, PAV/PAV): 1.09±0.02
- Increase in velocity (sinonasal ALI cultures [7]; 1 μM, PAV/PAV): 1.23±0.04
- Increase in velocity (sinonasal ALI cultures [7]; 10 μM, PAV/PAV): 1.48±0.04
- Increase in velocity (sinonasal ALI cultures [7]; 100 μM, AVI/AVI): 1.14±0.03
- Increase in velocity (sinonasal ALI cultures [7]; 100 μM, PAV/PAV): 1.64±0.04
- Concentration required to stimulate a significant increase in mucociliary transport (sinonasal ALI cultures [7]): 1 µM
- Peak CBF with C12HSL (sinonasal ALI cultures [9]): 1.25±0.05 and 1.03±0.01
- Peak Fluo-4 fluorescence (ΔF/F) (AVI-TAS2R38; 100 μM): 3±2%

Molecule: OC[C@H]1O[C@H](O[C@]2(CCl)O[C@H](CCl)[C@@H](O)[C@@H]2O)[C@H](O)[C@@H](O)[C@H]1Cl [sucralose]
- Effect on denatonium induced calcium signaling (nasal epithelial cells): inhibits denatonium induced calcium signaling

Molecule: COc1ccc2c(c1)CC[C@@H]1[C@@H]2CC[C@]2(C)[C@@H](NCCCCCCN3C(=O)C=CC3=O)CC[C@@H]12 [U73122]
- Effect on C4HSL-induced NO production in taster cultures (T2R38 [5]): blocked
- Effect on denatonium-induced antimicrobial response (Pseudomonas aeruginosa [10]; U73122 20 μM): inhibited
- Effect on beta-defensin secretion (beta-defensin 2): may be blocked

Molecule: COC(=O)[C@@]1(OC)C[C@H]2O[C@]1(C)n1c3ccccc3c3c4c(c5c6ccccc6n2c5c31)C(=O)N(C)C4 [KT5823]
- Effect on HSL-stimulated CBF increase (sinonasal ALI cultures [9]): blocked

Molecule: sodium thiocyanate [NaSCN]
- F/Fo after stimulation with 5 mM NaSCN (T2R38 [3]; +L-NAME (50 μM)): 1.24±0.07
- F/Fo after stimulation with 5 mM NaSCN (T2R38 [3]; control (no L-NAME)): 1.33±0.08
- DAF-FM fluorescence increase after 5 min NaSCN (T2R38 [5]): 202±38 units
- DAF-FM fluorescence increase after 5 min NaSCN (T2R38 [6]): 61±23 units

Molecule: CC(C)[C@]12CC(=O)[C@H](C)[C@H]1C2 [thujone]
- NO production with non-T2R38 bitter ligands (T2R38 [5]): did not stimulate NO production
- Ca2+ responses in sinonasal ALI cultures (nasal epithelial cells; non-T2R38 bitter agonists): not

Molecule: CCCCCC(=O)N[C@H]1CCOC1=O [C6HSL, N-Hexanoyl-L-homoserine lactone]
- Average peak Fluo-4 F/Fo after 5 min stimulation with C6HSL (T2R38 [2]; PAV/PAV): 1.52±0.074
- Average peak Fluo-4 F/Fo after 5 min stimulation with C6HSL (T2R38 [2]; PAV/PAV+U73122): 1.10±0.09
- Average peak Fluo-4 F/Fo after 5 min stimulation with C6HSL (T2R38 [4]; 200 μM C6HSL): 1.21±0.09

Molecule: OC[C@H]1O[C@@](CO)(O[C@H]2O[C@H](CO)[C@@H](O)[C@H](O)[C@H]2O)[C@@H](O)[C@@H]1O [sucrose]
- Effect on denatonium induced calcium signaling (nasal epithelial cells): inhibits denatonium induced calcium signaling
